Reference: ChEMBL document CHEMBL4813945, “Discovery and development of novel pyrimidine and pyrazolo/thieno-fused pyrimidine derivatives as potent and orally active inducible nitric oxide synthase dimerization inhibitor with efficacy for arthritis” (Eur J Med Chem, 2021)
The source made the active and inactive calls. The calls are words filed in the database; no cut-off is given here.

Key:
RAW264.7 [1] = test: Antiinflammatory activity against mouse RAW264.7 cells assessed as inhibition of LPS-induced NO production at 10 uM preincubated for 1 hrs followed by LPS stimulation and measured after 24 hrs by Griess assay relative to control; type: functional; conditions: time 25 hrs
L02 [2] = test: Antiinflammatory activity against human L02 assessed as inhibition of LPS-induced NO production preincubated for 1 hrs followed by LPS stimulation and measured after 24 hrs by Griess assay relative to control; type: functional, cell-based
RAW264.7 [3] = test: Cytotoxicity against mouse RAW 264.7 cells assessed as cell viability by MTT assay; type: cell-based
L02 [4] = test: Cytotoxicity against human L02 cells assessed as cell viability by MTT assay; type: cell-based
Rattus norvegicus [5] = test: Antiinflammatory activity in complete freund's adjuvant-induced male Sprague-Dawley rat model of arthritis assessed as reduction in ankle joint swelling at 40 to 80 mg/kg, IG administered once daily for 2 to 4 weeks; type: functional, organism-based; conditions: dose 40-80 mg/kg, time 2-4 weeks
Rattus norvegicus [6] = test: Antiinflammatory activity in complete freund's adjuvant-induced male Sprague-Dawley rat model of arthritis assessed as reduction in synovial hyperplasia at 80 mg/kg, IG after 4 weeks by H and E staining based histopathological analysis; type: functional, organism-based
Rattus norvegicus [7] = organism: Rattus norvegicus; test: Antiinflammatory activity against freund's adjuvant-induced male Sprague-Dawley rat model of arthritis assessed as decrease INOS expression at 40 to 80, IG after 4 weeks measured by staining based immunohistochemical analysis; type: functional, organism-based; conditions: dose 40-80 mg/kg
[8] = Metabolic stability in human hepatocytes assessed as clearance incubated up to 120 mins measured per million cells by LC-MS/MS analysis; type: ADME, cell-based, Hepatocyte; conditions: read-out: CLH
[9] = Metabolic stability in rat hepatocytes assessed as half life measured upto 120 mins by LC-MS/MS analysis; type: ADME, cell-based, Hepatocyte
[10] = Metabolic stability in rat hepatocytes assessed as parent compound remaining after 120 mins by LC-MS/MS analysis; type: ADME, cell-based, Hepatocyte; conditions: read-out: Stabilty
Cytochrome P450 1A2 = molecular target: T1, Cytochrome P450 1A2 (Homo sapiens, UniProt P05177); test: Inhibition of CYP1A2 in human liver microsomes using Phenacetin as substrate measured after 20 mins by LC-MS/MS analysis; type: ADME
T1 sequence (P05177 whole entry): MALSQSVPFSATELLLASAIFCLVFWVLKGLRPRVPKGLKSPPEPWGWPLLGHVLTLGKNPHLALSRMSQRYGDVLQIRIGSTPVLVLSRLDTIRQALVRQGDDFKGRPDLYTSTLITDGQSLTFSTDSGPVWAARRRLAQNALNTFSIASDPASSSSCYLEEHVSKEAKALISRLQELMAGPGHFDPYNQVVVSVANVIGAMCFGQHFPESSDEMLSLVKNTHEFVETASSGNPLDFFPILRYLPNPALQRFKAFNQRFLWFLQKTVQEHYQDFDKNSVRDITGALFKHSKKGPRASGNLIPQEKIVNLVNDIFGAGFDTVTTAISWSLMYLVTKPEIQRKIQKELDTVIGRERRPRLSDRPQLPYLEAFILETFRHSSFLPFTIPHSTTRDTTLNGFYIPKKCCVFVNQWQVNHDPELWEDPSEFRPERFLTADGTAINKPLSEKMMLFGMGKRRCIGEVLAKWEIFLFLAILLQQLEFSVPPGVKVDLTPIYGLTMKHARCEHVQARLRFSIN

Cytochrome P450 2D6 = Cytochrome P450 2D6 (Homo sapiens, UniProt P10635); test: Inhibition of CYP2D6 in human liver microsomes using Dextromethorphan as substrate measured after 20 mins by LC-MS/MS analysis; type: ADME
[11] = Tmax in Sprague-Dawley rat at 10 mg/kg, po measured after 0.25 to 24 hrs by LC-MS/MS analysis; type: ADME, organism-based; conditions: in vivo, time 0.25-24 hrs
[12] = AUC (0 to infinity) in Sprague-Dawley rat at 1 mg/kg, iv measured by LC-MS analysis; type: ADME, organism-based; parameters: time infinity, route intravenous, dose 1 mg/kg; conditions: in vivo
[13] = AUC (0 to infinity) in Sprague-Dawley rat at 10 mg/kg, po measured by LC-MS analysis; type: ADME, organism-based; parameters: time infinity, route oral, dose 10 mg/kg; conditions: in vivo
[14] = Half life in Sprague-Dawley rat at 1 mg/kg, iv measured after 0.08 to 24 hrs by LC-MS/MS analysis; type: ADME, organism-based; conditions: in vivo, time 0.08-24 hrs
[15] = Half life in Sprague-Dawley rat at 10 mg/kg, po measured after 0.25 to 24 hrs by LC-MS/MS analysis; type: ADME, organism-based; conditions: in vivo, time 0.25-24 hrs
[16] = Plasma clearance in Sprague-Dawley rat at 1 mg/kg, iv measured after 0.08 to 24 hrs hrs by LC/MS/MS analysis; type: ADME, organism-based; conditions: time 0.08-24 hrs
[17] = Acute toxicity in IG dosed rat assessed as maximum tolerated dose; type: organism-based; conditions: in vivo, po
[18] = Acute toxicity in rat assessed as mortality at 2000 mg/kg, IG administered as single dose; type: organism-based; conditions: in vivo, po
[19] = Subacute toxicity in rat assessed as change in body weight at 100 to 500 mg/kg, IG administered every other day for 14 days and measured every 2 days; type: organism-based; conditions: in vivo, po, 336 h, dose 100-500 mg/kg, time 14 day
[20] = Subacute toxicity in rat assessed as liver damage at 100 to 500 mg/kg, IG administered every other day for 14 days and measured every 2 days by H and E staining; type: organism-based; conditions: in vivo, po, 336 h, dose 100-500 mg/kg, time 14 day
Rattus norvegicus [21] = test: Antiinflammatory activity in complete freund's adjuvant-induced IG dosed male Sprague-Dawley rat model of arthritis assessed as decrease in IL-6 level in serum after 4 weeks by ELISA; type: functional, organism-based; conditions: dose 40-80 mg/kg
[22] = Acute toxicity in rat assessed as liver necrosis at 200 to 500 mg/kg measured after 7 days by H and E staining based assay; type: organism-based; conditions: in vivo, 168 h, dose 200-500 mg/kg, time 7 day
[23] = Acute toxicity in rat assessed as anorexia at 2000 mg/kg, IG administered as single dose; type: organism-based; conditions: in vivo, po
[24] = Acute toxicity in rat assessed as fur wrinkles at 2000 mg/kg, IG administered as single dose; type: organism-based; conditions: in vivo, po
[25] = Subacute toxicity in rat assessed as spleen damage at 100 to 500 mg/kg, IG administered every other day for 14 days and measured every 2 days by H and E staining; type: organism-based; conditions: in vivo, po, 336 h, dose 100-500 mg/kg, time 14 day
[26] = Subacute toxicity in rat assessed as heart damage at 100 to 500 mg/kg, IG administered every other day for 14 days and measured every 2 days by H and E staining; type: organism-based; conditions: in vivo, po, 336 h, dose 100-500 mg/kg, time 14 day
[27] = Subacute toxicity in rat assessed as lung damage at 100 to 500 mg/kg, IG administered every other day for 14 days and measured every 2 days by H and E staining; type: organism-based; conditions: in vivo, po, 336 h, dose 100-500 mg/kg, time 14 day
[28] = Subacute toxicity in rat assessed as anorexia at 100 to 500 mg/kg, IG administered every other day for 14 days and measured every 2 days; type: organism-based; conditions: in vivo, po, 336 h, dose 100-500 mg/kg, time 14 day
[29] = Subacute toxicity in rat assessed as clonic convulsions at 100 to 500 mg/kg, IG administered every other day for 14 days and measured every 2 days; type: organism-based; conditions: in vivo, po, 336 h, dose 100-500 mg/kg, time 14 day
[30] = Subacute toxicity in rat assessed as drowsiness at 100 to 500 mg/kg, IG administered every other day for 14 days and measured every 2 days; type: organism-based; conditions: in vivo, po, 336 h, dose 100-500 mg/kg, time 14 day
[31] = Subacute toxicity in rat assessed as fur wrinkles at 100 to 500 mg/kg, IG administered every other day for 14 days and measured every 2 days; type: organism-based; conditions: in vivo, po, 336 h, dose 100-500 mg/kg, time 14 day

Chain of Cytochrome P450 2D6 (P10635 whole entry): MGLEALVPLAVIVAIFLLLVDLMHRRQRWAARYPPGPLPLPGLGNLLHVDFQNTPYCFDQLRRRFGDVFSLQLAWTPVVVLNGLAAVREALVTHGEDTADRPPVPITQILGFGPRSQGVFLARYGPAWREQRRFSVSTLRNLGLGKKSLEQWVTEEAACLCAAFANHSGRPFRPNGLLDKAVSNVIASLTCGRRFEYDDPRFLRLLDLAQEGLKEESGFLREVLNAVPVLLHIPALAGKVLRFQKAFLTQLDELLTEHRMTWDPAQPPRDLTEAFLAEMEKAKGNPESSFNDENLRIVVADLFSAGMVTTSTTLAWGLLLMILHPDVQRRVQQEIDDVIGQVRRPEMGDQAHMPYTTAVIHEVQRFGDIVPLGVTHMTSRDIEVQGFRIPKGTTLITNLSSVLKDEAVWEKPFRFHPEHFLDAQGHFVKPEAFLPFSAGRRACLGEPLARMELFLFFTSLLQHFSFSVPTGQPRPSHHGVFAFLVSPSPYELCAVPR

COc1cc(/C=C/c2nc(NCc3ccc(C)cc3)c3sccc3n2)cc(OC)c1OC
inhibition at 10 µM (RAW264.7 [1]): 98.3%
IC50 (L02 [2]): > 1000 µM
IC50 (RAW264.7 [3]): > 50 µM
IC50 (L02 [4]): 2930 µM
Activity (Rattus norvegicus [5]): Active
Activity (Rattus norvegicus [6]): Active
Activity (Rattus norvegicus [7]): Active
hepatocyte CLint [8]: 2.1 µL/min/1e6 cells
half-life [9]: 0.925 h
remaining at 2 h [10]: 22.2%
IC50 (Cytochrome P450 1A2): 42.2 µM
IC50 (Cytochrome P450 2D6): > 50 µM
Tmax [11]: 3.33 h
AUC(0-inf) [12]: 401 ng·h/mL
AUC [13]: 1152 ng·h/mL
half-life [14]: 6.21 h
half-life [15]: 4.91 h
clearance [16]: 42.9 mL/min/kg
MTD [17]: 2000 mg/kg
Activity [18]: Non-Toxic
Activity [19]: Toxic
Activity [20]: Non-Toxic
Activity (Rattus norvegicus [21]): Dose-Dependent Effect
Activity [22]: Toxic
Activity [23]: Non-Toxic
Activity [24]: Non-Toxic
Activity [25]: Non-Toxic
Activity [26]: Non-Toxic
Activity [27]: Non-Toxic
Activity [28]: Non-Toxic
Activity [29]: Non-Toxic
Activity [30]: Non-Toxic
Activity [31]: Non-Toxic
